pIC50: −log10 of the molar value. Where a name gives a salt, the structure may show the parent alone.

Broadly, the pIC50 is the negative decadic logarithm of the IC50, by convention in mol/L.

One assay has as its target GPIIb/IIIa (Homo sapiens, UniProt P05106+P08514). The experiment in a line: In vitro solid phase purified glycoprotein IIb/IIIa binding assay (fibrinogen binding). To be noted: for inhibition at 50 µM: read-out: Fibrinogen Binding % Inh. (50 μM). The method, then:
The plate is covered and incubated overnight at 4° C. The GPIIb/IIa solution is discarded and 150 μl of 5% BSA is added and incubated at RT for 1-3 h. The plate is washed extensively with modified Tyrodes buffer. Biotinylated fibrinogen (25 μl/well) at 2×final concentration is added to the wells that contain the test compounds (25 μl/well). The plate is covered and incubated at RT for 2-4 h. Twenty minutes prior to incubation completion, one drop of Reagent A (Vecta Stain ABC Horse Radish Peroxidase kit, Vector Laboratories, Inc.) and one drop Reagent B are added with mixing to 5 mL modified Tyrodes buffer mix and let stand. The ligand solution is discarded and the plate washed (5×200 μl/well) with modified Tyrodes buffer. Vecta Stain HRP-Biotin-Avidin reagent (50 μl/well, as prepared above) is added and incubated at RT for 15 min. The Vecta Stain solution is discarded and the wells washed (5×200 μl/well) with modified Tyrodes buffer. Developing buffer (10 mL of 50 mM citrate/phosphate buffer @ pH 5.3, 6 mg 2-phenylenediamine, 6 μl 30% H2 O2; 50 μl/well) is added and incubated at RT for 3-5 min, and then 2N H2 SO4 (50 μl/well) is added. The absorbance is read at 490 nm.

Assay [1] deals with collagen-induced ex vivo platelet aggregation. Kind of assay: Ex vivo dog study: duration of >50% inhibition of collagen-induced ex vivo platelet aggregation. The assay is classed as in vivo. The method, then:
Adult mongrel dogs (8-13 kg) were anesthetized with sodium pentobarbital (35 mg/kg, i.v.) and artificially respired. Arterial blood pressure and heart rate were measured using a Millar catheter-tip pressure transducer inserted in a femoral artery. Another Millar transducer was placed in the left ventricle (LV) via a carotid artery to measure LV end diastolic pressure and indices of myocardial contractility. A lead II electrocardiogram was recorded from limb electrodes. Catheters were placed in a femoral artery and vein to sample blood and infuse drugs, respectively. Responses were continuously monitored using a Modular Instruments data aquisition system.
Arterial blood samples (5-9 ml) were withdrawn into tubes containing 3.8% sodium citrate to prepare platelet rich plasma (PRP) and to determine effects on coagulation parameters: prothrombin time (PT) and activated partial thromboplastin time (APTT). Separate blood samples (1.5 ml) were withdrawn in EDTA to determine hematocrit and cell counts (platelets, RBC's and white cells). Template bleeding times were obtained from the buccal surface using a symplate incision devise and Whatman filter paper.
Aggregation of PRP was performed using a BioData aggregometer. Aggregation of whole blood used a Chronolog impedance aggregometer. PT and APTT were determined on either a BioData or ACL 3000+ coagulation analyser. Cells were counted with a Sysmex K-1000.
Compounds were solubilized in a small volume of dimethylformamide (DMF) and diluted with saline to a final concentration of 10% DMF. Compounds were administered by the intravenous route with a Harvard infusion pump. Doses was administered over a 15 min interval at a constant rate of 0.33 ml/min. Data were obtained after each dose and in 30 min intervals following the end of drug administration. Oral doses were administered as aqueous solutions via syringe.

The test system of assay [2] is Thrombin-induced aggregation of gel-filtered platelets. The experiment in a line: In vitro inhibition of thrombin-induced gel-filtered platelet aggregation. In kind it is cell-based. To be noted: Homo sapiens; for inhibition at 50 µM: read-out: Platelet Aggregation % Inh. (50 μM). The method, then: The percentage of platelet aggregation is calculated as an increase in light transmission of compound-treated platelet concentrate vs. control-treated platelet concentrate. Human blood is obtained from drug free, normal donors into tubes containing 0.13M sodium citrate. Platelet rich plasma (PRP) is collected by centrifugation of whole blood at 200×g for 10 min at 25° C. The PRP (5 mL) is gel filtered through Sepharose 2B (bed volume 50 mL), and the platelet count is adjusted to 2×10^7 platelets per sample. The following constituents are added to a siliconized cuvette: concentrated platelet filtrate and Tyrode's buffer (0.14M NaCl, 0.0027M KCl, 0.012M NaHCO3,0.76 mM Na2 HPO4, 0.0055M glucose, 2 mg/mL BSA and 5.0 mM HEPES @ pH 7.4) in an amount equal to 350 μl, 50 μl of 20 mM calcium and 50 μl of the test compound. Aggregation is monitored in a BIODATA aggregometer for the 3 min following the addition of agonist (thrombin 50 μl of 1 unit/mL).

Assay [3] concerns thrombin-induced platelet aggregation. To be noted: L. Alig, J. Med. Chem. 1992, 35, 4393; read-out: IC50 against in vitro thrombin-induced platelet aggregation; cited from earlier work.

GPIIb/IIIa, sequence (P08514 32-887 limits assumed): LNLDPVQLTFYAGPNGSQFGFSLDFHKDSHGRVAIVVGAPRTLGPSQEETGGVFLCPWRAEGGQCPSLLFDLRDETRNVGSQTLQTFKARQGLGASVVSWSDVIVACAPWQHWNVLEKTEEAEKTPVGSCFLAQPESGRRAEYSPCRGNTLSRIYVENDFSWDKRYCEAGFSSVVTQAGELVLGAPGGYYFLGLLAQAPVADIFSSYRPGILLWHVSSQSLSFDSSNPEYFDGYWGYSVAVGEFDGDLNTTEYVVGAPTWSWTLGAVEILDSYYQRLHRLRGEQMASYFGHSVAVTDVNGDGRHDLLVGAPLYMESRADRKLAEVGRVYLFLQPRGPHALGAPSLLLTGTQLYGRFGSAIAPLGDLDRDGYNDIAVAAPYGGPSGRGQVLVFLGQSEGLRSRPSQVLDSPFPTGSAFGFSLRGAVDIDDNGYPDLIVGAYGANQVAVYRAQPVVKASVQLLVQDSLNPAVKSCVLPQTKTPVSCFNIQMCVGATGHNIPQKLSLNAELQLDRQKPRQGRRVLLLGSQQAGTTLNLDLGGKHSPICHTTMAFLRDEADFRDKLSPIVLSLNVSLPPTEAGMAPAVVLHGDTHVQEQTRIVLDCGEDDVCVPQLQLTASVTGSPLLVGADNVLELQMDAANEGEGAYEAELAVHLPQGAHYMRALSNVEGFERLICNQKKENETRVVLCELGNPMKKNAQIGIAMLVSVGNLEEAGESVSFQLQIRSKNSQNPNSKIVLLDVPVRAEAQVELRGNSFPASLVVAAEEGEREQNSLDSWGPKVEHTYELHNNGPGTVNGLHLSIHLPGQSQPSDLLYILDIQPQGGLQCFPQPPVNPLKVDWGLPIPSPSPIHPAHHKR
GPIIb/IIIa, sequence (P08514 891-1039 limits assumed): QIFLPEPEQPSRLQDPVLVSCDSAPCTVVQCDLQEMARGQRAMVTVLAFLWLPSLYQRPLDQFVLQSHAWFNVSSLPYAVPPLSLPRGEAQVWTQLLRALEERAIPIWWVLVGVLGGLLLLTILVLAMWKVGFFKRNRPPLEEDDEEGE
GPIIb/IIIa, sequence (P05106 27-788): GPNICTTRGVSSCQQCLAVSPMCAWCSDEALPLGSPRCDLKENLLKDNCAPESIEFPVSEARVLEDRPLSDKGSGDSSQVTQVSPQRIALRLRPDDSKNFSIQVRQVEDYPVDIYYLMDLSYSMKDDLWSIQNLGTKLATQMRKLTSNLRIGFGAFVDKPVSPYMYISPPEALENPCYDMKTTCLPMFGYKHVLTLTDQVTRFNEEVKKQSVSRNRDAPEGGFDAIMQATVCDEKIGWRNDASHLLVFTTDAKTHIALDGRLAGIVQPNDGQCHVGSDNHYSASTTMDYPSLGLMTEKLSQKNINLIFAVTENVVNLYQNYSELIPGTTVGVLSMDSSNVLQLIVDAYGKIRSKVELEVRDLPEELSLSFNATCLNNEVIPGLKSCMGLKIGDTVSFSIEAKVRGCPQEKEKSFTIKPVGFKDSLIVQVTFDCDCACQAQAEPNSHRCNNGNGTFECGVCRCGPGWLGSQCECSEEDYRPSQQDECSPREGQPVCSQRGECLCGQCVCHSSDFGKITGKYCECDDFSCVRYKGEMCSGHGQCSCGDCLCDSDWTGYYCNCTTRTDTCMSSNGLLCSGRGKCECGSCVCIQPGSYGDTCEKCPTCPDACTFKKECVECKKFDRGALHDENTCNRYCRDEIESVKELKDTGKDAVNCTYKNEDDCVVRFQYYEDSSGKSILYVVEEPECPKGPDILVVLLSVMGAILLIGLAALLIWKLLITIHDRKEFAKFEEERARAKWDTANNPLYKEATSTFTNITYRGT

As for `CCN(CC)C(=O)COC(=O)C[C@H](NC(=O)[C@@H]1CCCN(C(=O)CCC2CCNCC2)C1)c1cccnc1` [Compound 1, N-3-(4-Piperidinepropionyl)-R-(-)-nipecotyl-[(S)-3-amino-3-(3-pyridyl)]propionic acid 2-(Diethylamino)-2-oxoethyl ester.2HCl], on GPIIb/IIIa, the negative-log IC50 (pIC50) is 9.15 and the inhibition at 50 µM came out at 100%. In assay [1] (0.3 mpk), the “Duration of >50% inhibition of collagen-induced ex vivo platelet aggregation, intravenous dosing” value (“Duration of >50% inhibition … intravenous dosing” below) is reported as 60 min. Further, the “Duration of >50% inhibition of collagen-induced ex vivo platelet aggregation, oral dosing” value (shortened to “Duration of >50% inhibition … oral dosing”) in assay [1] (3 mpk) is reported as more than 180 min. In assay [2], the pIC50 is 6.85 and the inhibition at 50 µM is 100%.

For the compound `CCN(CC)C(=O)COC(=O)C[C@H](NC(=O)[C@@H]1CCCN(C(=O)CCC2CCNCC2)C1)c1ccc2c(c1)OCO2` [Compound 2], at GPIIb/IIIa, the negative logarithm of the IC50 (pIC50) is 8.30 and the inhibition at 50 µM worked out at 100%. In assay [1] (1.0 mpk), the “Duration of >50% inhibition … intravenous dosing” value was 120 min. Further, the “Duration of >50% inhibition … oral dosing” value in assay [1] (3 mpk) is 150 min. In addition, in assay [2], the negative-log IC50 (pIC50) was 5.96 and the inhibition at 50 µM came out at 100%.

Turning to `CCN(CC)C(=O)COC(=O)C[C@H](NC(=O)[C@@H]1CCCN(C(=O)CCC2CCNCC2)C1)c1cncc(Br)c1` [Compound 3], at GPIIb/IIIa, the pIC50 was 9.05 and the inhibition at 50 µM is 100%. Besides, the “Duration of >50% inhibition … oral dosing” value in assay [1] (3 mpk) is 90 min. Besides, in assay [2], the pIC50 was 6.72 and the inhibition at 50 µM turned out to be 100%.

Regarding `CCN(CC)C(=O)COC(=O)[C@H](CNC(=O)[C@@H]1CCCN(C(=O)CCC2CCNCC2)C1)NC(=O)OCc1ccccc1` [Compound 4, N-3-(4-Piperidinepropionyl)-R-(-)nipecotyl-[(S)-2-benzyloxycarbonylamino-3-amino]propionic acid 2-(Diethylamino)-2-oxoethyl ester.HCl], at GPIIb/IIIa, the negative logarithm of the IC50 (pIC50) was 8.70 and the inhibition at 50 µM is 100%. Also, in assay [1] (0.1 mpk), the “Duration of >50% inhibition … intravenous dosing” value was 60 min. The “Duration of >50% inhibition … oral dosing” value in assay [1] (3 mpk) is reported as more than 240 min. In addition, in assay [2], the negative-log IC50 (pIC50) is 6.54 and the inhibition at 50 µM came out at 100%.

Regarding `CCN(CC)C(=O)COC(=O)[C@H](CNC(=O)[C@@H]1CCCN(C(=O)/C=C/C2CCNCC2)C1)NC(=O)OCc1ccccc1` [Compound 5, N-3-(4-Piperidinepropenoyl)-R-(-)nipecotyl-[(S)-2-benzyloxycarbonylamino-3-amino]propionic acid 2-(Diethylamino)-2-oxoethyl ester.HCl], on GPIIb/IIIa, the pIC50 is 8.01 and the inhibition at 50 µM was 100%. Moreover, the “Duration of >50% inhibition … intravenous dosing” value in assay [1] (0.1 mpk) is given as 60 min. For the same compound, the “Duration of >50% inhibition … oral dosing” value in assay [1] (1 mpk) is more than 240 min. For the same compound, in assay [2], the pIC50 was 6.57 and the inhibition at 50 µM was 100%.

For `O=C(N[C@@H](CNC(=O)[C@@H]1CCCN(C(=O)/C=C/C2CCNCC2)C1)C(=O)OCC(=O)N1CCCCC1)OCc1ccccc1` [Compound 6, N-3-(4-Piperidinepropenoyl)-R-(-)nipecotyl-[(S)-2-benzyloxycarbonylamino-3-amino]propionic acid 2-(Piperidino)-2-oxoethyl ester.HCl], on GPIIb/IIIa, the pIC50 is 8.60 and the inhibition at 50 µM was 100%. In assay [1] (1 mpk), the “Duration of >50% inhibition … oral dosing” value is recorded as 150 min. Besides, in assay [2], the negative-log IC50 (pIC50) is 6.29 and the inhibition at 50 µM amounted to 100%.

Consider `CN(CC(=O)c1ccc(OCC(=O)O)c(OCC(=O)O)c1)C(=O)c1ccc(C(=N)N)cc1` [Ro-438857], for which the pIC50 in assay [3] is 7.03.

For the compound `O=C(N[C@@H](CNC(=O)[C@@H]1CCCN(C(=O)CCC2CCNCC2)C1)C(=O)O)OCc1ccccc1` [carboxylic acid congener, reference compound], the “Duration of >50% inhibition … oral dosing” value in assay [1] (3 mpk) is 180 min.

The values are drawn from US6191145A, “Orally-active nipecotamide glycolamide esters for the treatment of thrombosis disorders” (Ortho-McNeil Pharmaceutical, Inc., priority 1999, dated 2001).
